Measured values as given in patent publication US20240027479A1, “A Comprehensive Breath Test that Confirms Recent Use of Inhaled Cannabis within the Impairment Window” (RCU Labs, Inc., priority 2018, published 2024).
“And” between values parts separate entries of the source, which are not always exact repeats. Equal entries are not always repeated. Where two headings read alike, the source gives them in different places.

Experiments:
[1] = Cannabinoids and Δ^9-THC metabolites in capillary blood (LC-HRMS); conditions: pre-smoking
Description: The complex nature of cannabinoid pharmacokinetics and pharmacodynamics calls for a new approach for effectively determining recent use of cannabis within the impairment window. We sought to develop a multiple-parameter test based on pharmacological changes in Δ^9-THC and its metabolites in blood over time. This approach requires the collection of two samples separated by a known time interval, which is a critical difference compared to current blood testing methods that rely on the collection of a single sample. The two-sample strategy makes possible the detection of Δ^9-THC in its distribution phase where the half-life is very short [Moeller M R. et al., J Forensic Sci 37:969-83 (1992); Wall M E. et al., Clin Pharmacol Ther 34:352-63 (1983)], which occurs only within the first few hours after smoking, and for the evaluation of how Δ^9-THC metabolite levels in blood are changing with time relative to Δ^9-THC. A liquid chromatography high-resolution mass spectrometry (LC-HRMS) bioanalytical method for the quantification of cannabinoids in microsamples (50 μL) of whole blood was developed and validated for this purpose [DeGregorio M W. et al., J AOAC Int 103:725-35 (2020)].
A total of 92 subjects were included in clinical trials designed to evaluate the feasibility of the described method for determining recent cannabis use (blood-based study in 48 subjects) and recent cannabis use and impairment (breath- and blood-based study in 44 subjects). Each subject was given a single cannabis cigarette and instructed to smoke as much of it as possible within a 10-minute period. Cigarettes containing 500 mg of dried cannabis flower were prepared immediately before each smoking session. During the studies, subjects were given a variety of cannabis chemovars to smoke, with Δ^9-THC content ranging from a low of 8.5% to a high of 28.4%. A wide variety of chemovars was included to account for the variability in Δ^9-THC potencies available in numerous cannabis retail establishments in the various U.S. states where recreational and/or medicinal cannabis has been legalized. Capillary blood samples ([…] collected at various time points prior to smoking and up to 200 minutes after smoking, were obtained from a total of 92 subjects using a variety of methods including lancets and two types of automated blood collection devices. Exhaled breath samples were collected from a total of 44 subjects at various time points prior to smoking and up to 240 minutes post-smoking. Breath samples were collected using devices equipped with electrostatic polymer filters and that are designed to collect approximately 20 L of exhaled breath through normal breathing. The time required for breath sample collection was approximately 2-3 minutes. A total of 74 subjects were asked to self-assess their level of impairment before smoking and at each designated sampling time point after smoking based on a scale ranging from 0 (not impaired) to 10 (very impaired) as shown in FIG. 2. As a physical indicator of impairment, 44 subjects were evaluated for horizontal gaze nystagmus.
One of the first endpoints investigated during clinical development of the recent use test method was whether there is any relationship between blood Δ^9-THC levels and impairment. Prior to smoking, Δ^9-THC blood concentrations were evaluated in a group of 30 subjects before and up to 200 minutes after smoking a 500-mg cannabis cigarette and compared to a common legal limit (5 ng/mL) for establishing driver impairment due to cannabis.

[2] = Presence of cannabinoids in exhaled breath before and after smoking (LC-HRMS); type: in vivo, human
Procedure: (§1) The positive recent use test results outside of the three-hour impairment window based on blood sampling alone led to the incorporation of a second testing matrix, exhaled breath, to strengthen the results of the test method so that cannabis users who are within the impairment window after smoking can be more accurately identified. For this purpose, a total of 44 additional subjects were evaluated in a smoking study in which both exhaled breath and blood samples were collected and then analyzed by LC-HRMS for cannabinoids and Δ^9-THC metabolites. As with the 48-subject blood-based study, subjects were given a 500-mg cannabis cigarette to smoke, and breath and blood samples were collected at various time points before and after smoking.

[3] = Cannabinoid half-lives in exhaled breath, multi-point breath sampling; type: in vivo, human; conditions: for Cannabinoid Half-Lives (min) in breath, back-to-back sampling: individual subject; for half-life: human, exhaled breath, inhaled, 500 mg
Procedure: as §1
These included the presence of CBN, CBC, CBG, Δ^9-THCV, and CBGA, and short half-lives (<60 minutes) for Δ^9-THC, CBN, CBC, CBG, and Δ^9-THCV (see Table 5 below). […] Pre-smoking, half-lives were calculable for Δ^9-THC in only three subjects.
Evidence of recent cannabis use by inhalation through smoking or vaping dissipates rapidly in exhaled breath, and thus allowing 20 minutes between breath samplings, which was employed in the blood-based study and for most of the subjects in the blood and breath-based study, may result in the loss of valuable data. In the last nine subjects involved in the exhaled breath study, a back-to-back sample collection strategy was employed whereby two exhaled breath samples were collected in quick succession at 20 and 40 minutes post-smoking. Approximately two minutes elapsed between the collection of each sample. The very short half-lives observed for Δ^9-THC, CBN, and other cannabinoids (approximately five minutes or less) in exhaled breath would allow for rapid sampling (see Table 6 below).

[4] = Stability of target analytes in the breath collection device; type: physicochemical
Description: In particular, CBN, CBG, and Δ^9-THCV all have a much greater incidence in breath during peak impairment (the first hour after smoking) compared to pre-smoking. […] Stability of the analytes within the breath collection devices was previously established (see Table 4 below).

[5] = 0-10 Minutes Post-Smoking, read-out: Average Half-Life (minutes ± SD) in breath
[6] = 0-20 Minutes Post-Smoking, read-out: Average Half-Life (minutes ± SD) in breath
[7] = 20 Minutes Post-Smoking, read-out: Cannabinoid Half-Lives (min) in breath, back-to-back sampling, Average
[8] = 40 Minutes Post-Smoking, read-out: Cannabinoid Half-Lives (min) in breath, back-to-back sampling, Average
[9] = Day 3, breath collection device
[10] = Day 7, breath collection device
[11] = Day 10, breath collection device
[12] = Day 14, breath collection device
[13] = Day 30, breath collection device

Compound | detection in subjects' blood samples at baseline prior to smoking [1] | Presence in exhaled breath, Percent (%) Positivity ([2]; >60 minutes after smoking) | Presence in exhaled breath, positive/evaluable subjects ([2]; >60 minutes after smoking) | Presence in exhaled breath, Percent (%) Positivity ([2]; Baseline (Pre-smoking)) | Presence in exhaled breath, positive/evaluable subjects ([2]; Baseline (Pre-smoking)) | Presence in exhaled breath, Percent (%) Positivity ([2]; ≤60 minutes after smoking) | Presence in exhaled breath, positive/evaluable subjects ([2]; ≤60 minutes after smoking) | Analyte Stability (%) at Room Temperature (20-25° C.) [4, 9] [%] | Analyte Stability (%) at Room Temperature (20-25° C.) [4, 10] [%] | Analyte Stability (%) at Room Temperature (20-25° C.) [4, 11] [%] | Analyte Stability (%) at Room Temperature (20-25° C.) [4, 12] [%] | Analyte Stability (%) at Room Temperature (20-25° C.) [4, 13] [%] | other results
CCCCCc1cc(O)c2c(c1)OC(C)(C)C1CC(O)C(CO)=CC21 (stereo not drawn) [8β,11-dihydroxy-Δ^9-THC] | detected | – | – | – | – | – | – | – | – | – | – | – | –
CCCCCc1cc(O)c2c(c1)OC(C)(C)[C@@H]1C[C@@H](O)C(C)=C[C@@H]21 [8β-hydroxy-Δ^9-THC] | detected | – | – | – | – | – | – | – | – | – | – | – | –
CCCCCc1cc(O)c2c(c1)OC(C)(C)C1CCC(CO)=CC21 (stereo not shown) [11-OH-Δ^9-THC, 11-hydroxy-Δ^9-tetrahydrocannabinol] | detected | – | – | – | – | – | – | – | – | – | – | – | –
CCCCCc1cc(O)c2c(c1)OC(C)(C)[C@@H]1CCC(C(=O)O)=C[C@@H]21 [11-nor-9-carboxy-Δ^9-THC, 11-nor-9-carboxy-Δ^9-tetrahydrocannabinol] | detected | – | – | – | – | – | – | – | – | – | – | – | –
CCCCCc1cc(O)c2c(c1)OC(C)(CCC=C(C)C)C=C2 (stereo not shown) [CBC, cannabichromene] | detected | (0%) | 0/40 | (0%) | 0/34 | (97.5%) | 39/40 | 100.6 | 89.1 | 89.9 | 82.2 | 75.6 | Cannabinoid Half-Lives (min) in breath, back-to-back sampling ([3]; 20 Minutes Post-Smoking): 2.2 min and 2.0 min and 2.7 min and 1.3 min and 11.8 min and 1.0 min; Cannabinoid Half-Lives (min) in breath, back-to-back sampling ([3]; 40 Minutes Post-Smoking): 2.3 min and 3.5 min and 5.2 min; half-life [3, 5]: 3.9 ± 2.5 min; half-life [3, 6]: 3.8 ± 2.3 min; half-life [3, 7]: 3.3 min; half-life [3, 8]: 3.6 min
C=C(C)[C@@H]1CCC(C)=C[C@H]1c1c(O)cc(CCCCC)cc1O [CBD, cannabidiol] | detected | – | – | – | – | – | – | – | – | – | – | – | –
C=C(C)[C@@H]1CCC(C)=C[C@H]1c1c(O)cc(CCCCC)c(C(=O)O)c1O [CBDA, cannabidiolic acid] | detected | – | – | – | – | – | – | – | – | – | – | – | –
CCCCCc1cc(O)c(C/C=C(\C)CCC=C(C)C)c(O)c1 [CBG, cannabigerol] | detected | (2.5%) | 1/40 | (5.9%) | 2/34 | (92.5%) | 37/40 | 97.5 | 87.6 | 97.8 | 75.0 | 56.5 | Cannabinoid Half-Lives (min) in breath, back-to-back sampling ([3]; 20 Minutes Post-Smoking): 1.6 min and 1.3 min and 2.6 min and 2.1 min and 0.7 min; half-life [3, 5]: 3.6 ± 2.1 min; half-life [3, 6]: 3.7 ± 3.1 min; half-life [3, 7]: 1.7 min
CCCCCc1cc(O)c(C/C=C(\C)CCC=C(C)C)c(O)c1C(=O)O [CBGA, cannabigerolic acid] | detected | (10.0%) | 4/40 | (11.8%) | 4/34 | (45.0%) | 18/40 | 99.4 | 110.9 | 110.4 | – | 114.3 | –
CCCCCc1cc(O)c2c(c1)OC(C)(C)c1ccc(C)cc1-2 [CBN, cannabinol] | detected | (10.0%) | 4/40 | (2.9%) | 1/34 | (92.5%) | 37/40 | 104.5 | 100.0 | 107.3 | 87.9 | 74.4 | Cannabinoid Half-Lives (min) in breath, back-to-back sampling ([3]; 20 Minutes Post-Smoking): 2.0 min and 2.3 min and 1.8 min and 6.4 min and 1.1 min; Cannabinoid Half-Lives (min) in breath, back-to-back sampling ([3]; 40 Minutes Post-Smoking): 2.9 min and 4.8 min and 10.7 min; half-lives observed in exhaled breath ([3]; approximate, summary statement): five; half-life ([3]; 20-60 Minutes Post-Smoking, read-out: Average Half-Life (minutes ± SD) in breath): 35.2 min; half-life [3, 7]: 2.7 min; half-life ([3]; 40-60 Minutes Post-Smoking, read-out: Average Half-Life (minutes ± SD) in breath): 12.8 min; half-life [3, 8]: 6.1 min
CCCCCc1cc2c(c(O)c1C(=O)O)[C@@H]1C=C(C)CC[C@H]1C(C)(C)O2 [Δ^9-THCA, Δ^9-tetrahydrocannabinolic acid A] | detected | – | – | – | – | – | – | – | – | – | – | – | –
CCCc1cc(O)c2c(c1)OC(C)(C)[C@@H]1CCC(C)=C[C@@H]21 [Δ^9-THCV, Δ^9-tetrahydrocannabivarin] | detected | (0%) | 0/40 | (0%) | 0/34 | (90.0%) | 36/40 | 79.7 | 68.1 | 69.8 | 56.5 | 47.1 | Average Half-Life (minutes ± SD) in breath ([3]; 0-10 Minutes Post-Smoking): 4.2 ± 3.9 min; Average Half-Life (minutes ± SD) in breath ([3]; 0-20 Minutes Post-Smoking): 2.9 ± 0.7 min
